Literature values as cited in US20070065513A1, “Stable lansoprazole formulation” (priority 2003, published 2007).
Read-outs that look alike come from different tables or passages of the source.

For COc1ccc2[nH]c([S+]([O-])Cc3ncc(C)c(OC)c3C)nc2c1 (stereo not drawn) [Omeprazole, 5methoxy-2(((4-methoxy-3,5-dimethyl-2-pyridinyl)methyl)sulfinyl)-1H-benzimidazole], the half life (pH 6.5) is given as 18 h, the half life (pH 11) is given as “about 300 days” and the half-life of degradation (pH values below 4.0) is given as “less than 10 minutes”.
